# According to article PMC3746001 (ACS chemical biology, 2013):
# How the values were obtained:
# [1] = target: Human DNA polymerase beta (hpol β) (Homo sapiens, UniProt P06746); assay: Fluorescence-based polymerase assay, hpol β; type: biochemical
# [2] = target: T1, human Y-family DNA polymerase kappa (hpol κ) (Homo sapiens, UniProt Q9UBT6); assay: Fluorescence-based polymerase assay, hpol κ; type: biochemical
# T1 sequence (Q9UBT6 19-526): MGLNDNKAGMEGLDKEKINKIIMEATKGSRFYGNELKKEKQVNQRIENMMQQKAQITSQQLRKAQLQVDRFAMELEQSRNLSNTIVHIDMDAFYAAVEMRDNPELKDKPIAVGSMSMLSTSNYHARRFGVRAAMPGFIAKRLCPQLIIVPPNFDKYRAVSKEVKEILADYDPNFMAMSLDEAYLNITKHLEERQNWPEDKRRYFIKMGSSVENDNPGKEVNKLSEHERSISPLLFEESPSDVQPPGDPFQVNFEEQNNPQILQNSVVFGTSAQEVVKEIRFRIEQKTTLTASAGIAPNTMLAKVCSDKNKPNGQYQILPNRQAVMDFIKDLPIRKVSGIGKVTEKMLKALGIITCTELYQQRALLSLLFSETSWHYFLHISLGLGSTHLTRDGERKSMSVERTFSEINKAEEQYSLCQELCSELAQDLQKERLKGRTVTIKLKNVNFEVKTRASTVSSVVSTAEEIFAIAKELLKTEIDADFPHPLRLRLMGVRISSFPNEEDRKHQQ
# [3] = target: HIV-1 RT (Human immunodeficiency virus type 1 group M subtype B, UniProt P04585); assay: Fluorescence-based polymerase assay, HIV-1 RT; type: biochemical
# [4] = target: T2, human DNA polymerase eta (hpol η) (Homo sapiens, UniProt Q9Y253); assay: Fluorescence-based polymerase strand-displacement assay, hpol η; type: biochemical; settings: IC50 for inhibition of hpol η, 10 nM hpol η, 50 nM DNA, 0.1 mM dTTP; mean ± standard deviation, triplicate
# T2 sequence (Q9Y253 1-437): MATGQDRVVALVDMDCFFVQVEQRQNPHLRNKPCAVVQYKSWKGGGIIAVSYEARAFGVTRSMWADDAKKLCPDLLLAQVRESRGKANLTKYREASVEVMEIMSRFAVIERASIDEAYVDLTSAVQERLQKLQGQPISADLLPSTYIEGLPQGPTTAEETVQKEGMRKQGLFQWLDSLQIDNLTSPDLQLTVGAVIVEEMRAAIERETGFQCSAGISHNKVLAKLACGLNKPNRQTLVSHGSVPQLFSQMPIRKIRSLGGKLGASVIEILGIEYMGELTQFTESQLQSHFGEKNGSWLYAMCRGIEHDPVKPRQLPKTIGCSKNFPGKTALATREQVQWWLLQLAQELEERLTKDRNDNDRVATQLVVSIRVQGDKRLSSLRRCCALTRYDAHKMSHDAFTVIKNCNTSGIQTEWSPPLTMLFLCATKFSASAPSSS
# [5] = target: T3, Dpo1 (Saccharolobus solfataricus, UniProt P26811); assay: Fluorescence-based polymerase assay, Dpo1; type: biochemical, S. solfataricus
# T3 sequence (P26811 1-882): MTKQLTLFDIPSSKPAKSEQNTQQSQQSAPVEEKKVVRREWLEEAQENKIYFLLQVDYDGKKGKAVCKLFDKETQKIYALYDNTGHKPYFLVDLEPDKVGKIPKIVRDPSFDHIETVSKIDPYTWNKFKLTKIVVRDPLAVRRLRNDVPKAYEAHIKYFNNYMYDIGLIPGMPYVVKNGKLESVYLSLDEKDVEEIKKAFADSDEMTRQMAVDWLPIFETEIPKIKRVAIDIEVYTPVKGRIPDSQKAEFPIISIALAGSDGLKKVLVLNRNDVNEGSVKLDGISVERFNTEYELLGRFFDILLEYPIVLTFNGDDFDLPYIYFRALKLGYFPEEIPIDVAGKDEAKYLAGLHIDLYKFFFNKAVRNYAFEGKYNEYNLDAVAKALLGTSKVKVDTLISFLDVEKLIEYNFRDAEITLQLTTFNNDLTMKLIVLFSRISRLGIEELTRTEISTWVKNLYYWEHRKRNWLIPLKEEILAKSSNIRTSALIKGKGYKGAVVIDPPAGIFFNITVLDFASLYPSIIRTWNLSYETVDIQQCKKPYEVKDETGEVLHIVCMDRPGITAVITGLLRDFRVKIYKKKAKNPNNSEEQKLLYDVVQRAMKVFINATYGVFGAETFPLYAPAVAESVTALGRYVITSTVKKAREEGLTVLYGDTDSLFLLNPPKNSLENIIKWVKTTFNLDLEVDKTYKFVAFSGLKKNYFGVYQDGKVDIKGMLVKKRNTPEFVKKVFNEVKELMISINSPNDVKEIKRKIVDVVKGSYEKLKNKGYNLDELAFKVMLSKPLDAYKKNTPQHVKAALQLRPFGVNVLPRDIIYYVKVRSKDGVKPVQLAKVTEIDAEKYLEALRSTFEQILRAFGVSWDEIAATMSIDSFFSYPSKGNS
# [6] = target: T4, Dpo4 (Saccharolobus solfataricus, UniProt Q97W02); assay: Fluorescence-based polymerase assay, Dpo4; type: biochemical, Sulfolobus solfataricus
# T4 sequence (Q97W02 1-352): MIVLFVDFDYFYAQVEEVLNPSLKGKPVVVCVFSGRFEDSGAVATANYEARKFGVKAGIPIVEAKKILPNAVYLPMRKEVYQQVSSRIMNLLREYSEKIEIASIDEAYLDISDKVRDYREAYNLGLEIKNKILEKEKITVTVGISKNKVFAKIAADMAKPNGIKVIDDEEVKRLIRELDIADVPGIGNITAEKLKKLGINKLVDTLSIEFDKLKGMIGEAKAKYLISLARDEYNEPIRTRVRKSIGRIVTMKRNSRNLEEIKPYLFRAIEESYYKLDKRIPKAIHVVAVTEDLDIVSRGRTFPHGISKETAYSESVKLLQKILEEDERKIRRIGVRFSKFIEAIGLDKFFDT
compound,measurement,setting,value
"O=C1NC(=S)NC(=O)C1=Cc1cn(C(=O)c2ccccc2Br)c2ccc(Cl)cc12 [ITBA-12, 5-((1-(2-bromobenzoyl)-5-chloro-1H-indol-3-yl)methylene)-2-thioxodihydropyrimidine-4,6(1H,5H)-dione]",IC50,[1],41 ± 24 µM
same,Fold difference in IC50 between hpol η and hpol β,[1]; hpol β versus hpol η,~ 1.4 fold
same,IC50,[2],59 ± 11 µM
same,IC50 for hpol κ relative to hpol η,[2]; hpol κ versus hpol η,twice as high
same,IC50,[3],~80 µM
same,IC50,[4],29.8 ± 2.7 µM
same,IC50,[5],~80 µM
same,IC50,[6],~80 µM
